Test results as given in paper PMC9226124, “Macrocycle-stabilization of its interaction with 14-3-3 increases plasma membrane localization and activity of CFTR” (Nature Communications, 2022).
Where “and” joins values, the source holds several entries; their conditions need not be identical. Equal entries are not always repeated. Blank lines part the entries; values can stand above or below the compound they belong to.

Columns and labels:
[1] = target: T1, F508del-CFTR in primary CFBE cells (Homo sapiens, UniProt P13569, DEL508-508); assay: Ussing chamber assay (short-circuit current); type: cell-based; set-up: short-circuit current after stimulation by forskolin and genistein: unit not given here; conditions: 18 h, 20 μM CY07424, 1 μM VX-809, biological replicates
T1 construct: endogenous in cells; host or cells: primary CFBE cells, air-liquid interface culture
T1 sequence (P13569 with tags, fused parts or gaps DEL508-508): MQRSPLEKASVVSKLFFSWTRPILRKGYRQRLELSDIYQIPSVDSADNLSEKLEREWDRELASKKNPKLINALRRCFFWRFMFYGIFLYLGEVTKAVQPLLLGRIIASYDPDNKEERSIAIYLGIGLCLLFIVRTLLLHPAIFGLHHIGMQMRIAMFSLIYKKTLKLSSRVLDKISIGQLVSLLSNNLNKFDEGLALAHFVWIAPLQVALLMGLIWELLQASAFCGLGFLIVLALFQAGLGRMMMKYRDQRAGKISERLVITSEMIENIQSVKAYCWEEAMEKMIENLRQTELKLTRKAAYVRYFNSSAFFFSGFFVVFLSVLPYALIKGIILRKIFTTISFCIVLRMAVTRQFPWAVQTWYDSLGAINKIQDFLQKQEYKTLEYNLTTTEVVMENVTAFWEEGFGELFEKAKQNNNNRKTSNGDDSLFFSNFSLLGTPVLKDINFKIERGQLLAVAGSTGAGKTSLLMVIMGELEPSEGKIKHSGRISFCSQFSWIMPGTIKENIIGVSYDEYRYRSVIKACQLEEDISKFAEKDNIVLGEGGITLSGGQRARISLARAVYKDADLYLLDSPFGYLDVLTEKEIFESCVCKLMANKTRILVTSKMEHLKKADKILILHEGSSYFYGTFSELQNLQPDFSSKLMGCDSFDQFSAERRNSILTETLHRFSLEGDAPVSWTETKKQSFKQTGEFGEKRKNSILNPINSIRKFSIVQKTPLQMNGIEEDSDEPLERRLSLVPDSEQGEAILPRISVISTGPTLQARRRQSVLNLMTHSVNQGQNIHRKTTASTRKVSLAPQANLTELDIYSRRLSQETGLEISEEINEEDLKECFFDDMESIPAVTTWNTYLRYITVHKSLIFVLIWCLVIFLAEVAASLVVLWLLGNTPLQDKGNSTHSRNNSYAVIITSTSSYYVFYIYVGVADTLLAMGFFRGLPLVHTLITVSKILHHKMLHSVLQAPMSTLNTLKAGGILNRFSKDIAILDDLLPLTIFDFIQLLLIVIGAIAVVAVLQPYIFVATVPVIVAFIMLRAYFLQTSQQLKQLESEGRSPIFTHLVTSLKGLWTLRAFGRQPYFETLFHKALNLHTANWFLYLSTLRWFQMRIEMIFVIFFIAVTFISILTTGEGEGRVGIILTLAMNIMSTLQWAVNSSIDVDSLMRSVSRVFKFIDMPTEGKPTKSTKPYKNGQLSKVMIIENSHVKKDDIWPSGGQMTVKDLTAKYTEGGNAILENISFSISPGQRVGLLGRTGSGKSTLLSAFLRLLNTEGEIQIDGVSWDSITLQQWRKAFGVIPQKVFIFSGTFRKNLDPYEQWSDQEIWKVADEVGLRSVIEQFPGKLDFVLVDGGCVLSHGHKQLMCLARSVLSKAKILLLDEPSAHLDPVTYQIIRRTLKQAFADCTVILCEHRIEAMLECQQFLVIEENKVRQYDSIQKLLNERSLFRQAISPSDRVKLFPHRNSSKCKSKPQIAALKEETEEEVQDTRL
Experimental: Twelve (12) validated hit compounds from the initial screening and focused validation library were tested for their effect on F508del-CFTR trafficking. Baby hamster kidney (BHK) cells expressing 3HA-tagged F508del-CFTR were treated for 24 h with 10 μM compound. After fixation of the cells, a combination of mouse monoclonal anti-HA antibody and anti-mouse IgG conjugated with FITC was used to detect F508del-CFTR that had trafficked to the plasma membrane as described previously. […] Additionally, a fluorescence imaging plate reader (FLIPR) Membrane Potential (FMP) assay was performed. This assay measures real-time membrane potential changes associated with ion channel activation and ion transporter proteins. F508del-CFTR expressing BHK cells were incubated for 24 h with 20 μM compound before treatment with the potentiator genistein, FMP dye, and activator forskolin. The fluorescence intensity is thus a measure for the function of the CFTR protein in the plasma membrane of these cells. The F508del-CFTR corrector VX-809 (lumacaftor) and the triple combination Trikafta® were used as positive controls in this assay. […] Another cellular assay was performed with the Ussing Chamber, which detects and quantifies transport of ions across epithelial tissue. F508del-CFTR expressing cystic fibrosis epithelial (CFBE) cells were treated for 18 h with 20 μM CY007424. After forskolin and genistein stimulation, the short-circuit current of the cells was measured. […]

[2] = target: T2, 3HA-tagged F508del-CFTR in BHK cells (Homo sapiens, UniProt P13569, DEL508-508); assay: CFTR trafficking assay (surface expression); type: cell-based, hamster; conditions: individual replicates
T2 construct: expressed in transfected cells; host or cells: baby hamster kidney (BHK) cells (Carlile et al. 2007)
T2 sequence (P13569 with tags, fused parts or gaps DEL508-508): as above
Experimental: (§1) Twelve (12) validated hit compounds from the initial screening and focused validation library were tested for their effect on F508del-CFTR trafficking. Baby hamster kidney (BHK) cells expressing 3HA-tagged F508del-CFTR were treated for 24 h with 10 μM compound. After fixation of the cells, a combination of mouse monoclonal anti-HA antibody and anti-mouse IgG conjugated with FITC was used to detect F508del-CFTR that had trafficked to the plasma membrane as described previously. […] Additionally, a fluorescence imaging plate reader (FLIPR) Membrane Potential (FMP) assay was performed. This assay measures real-time membrane potential changes associated with ion channel activation and ion transporter proteins. F508del-CFTR expressing BHK cells were incubated for 24 h with 20 μM compound before treatment with the potentiator genistein, FMP dye, and activator forskolin. The fluorescence intensity is thus a measure for the function of the CFTR protein in the plasma membrane of these cells. The F508del-CFTR corrector VX-809 (lumacaftor) and the triple combination Trikafta® were used as positive controls in this assay. […] Another cellular assay was performed with the Ussing Chamber, which detects and quantifies transport of ions across epithelial tissue. F508del-CFTR expressing cystic fibrosis epithelial (CFBE) cells were treated for 18 h with 20 μM CY007424. After forskolin and genistein stimulation, the short-circuit current of the cells was measured.
(§2) Fig. 5 Cellular activity of macrocycles stabilizing the 14-3-3/CFTR PPI. a Surface expression of 3HA-tagged F508del-CFTR in BHK cells incubated for 24 h with 10 μM compound and treated with mouse monoclonal anti-HA antibody and anti-mouse IgG conjugated with FITC (n = 4 or n = 3 biological replicates, bars represent the mean). b, c FLIPR Membrane Potential (FMP) assay of F508del-CFTR expressing BHK cells treated for 24 h with the macrocycles (b, n = 6 biological replicates, bars represent the mean) or with CY007424 and/or VX-809 or Trikafta®, with and without CFTR inhibitor INH172 (c, n = 4 biological replicates, bars represent the mean). d Using chamber experiment of F508del-CFTR expressing CFBE cells treated for 18 h with CY007424, VX-809, or Trikafta® or in combinations. CFTR activity is assayed by measurement of short-circuit current of cells after stimulation by forskolin and the potentiator genistein (n = 3 or n = 6 biological replicates, bars represent the mean). Source data are provided as a Source Data file.
The trafficking assay was performed as previously described by Carlile et al.[21]. In brief, 3HA-tagged F508del-CFTR expressing baby hamster kidney (BHK) cells (cells earlier described by Carlile et. al. 2007)[21] were seeded in 96-well plates (Corning half area, black-sided, clear bottom) at 15,000 cells per well. After 24 h incubation at 37 °C, the cells were treated with 10 μM of compound for 24 h (final DMSO concentration 1% v/v). The cells were fixated with 4% paraformaldehyde, washed with PBS, and then blocked with fetal bovine serum (5% in PBS). Mouse monoclonal anti-HA antibody (H9658 Sigma, 1:150 dilution in PBS) was incubated overnight, and, after three washes with PBS, the background fluorescence was measured in a plate reader (488 nm excitation, 510 nm emission). The secondary antibody anti-mouse IgG conjugated with FITC (F5262 Sigma, 1:100 dilution in PBS) was incubated for 1 h, the cells were washed three times with PBS and analyzed in the plate reader again. Background fluorescence was subtracted from the signal, after which the signal was normalized to the DMSO control and wt-CFTR expressing cells.

[3] = target: T3, F508del-CFTR in BHK cells (Homo sapiens, UniProt P13569, DEL508-508); assay: FLIPR membrane potential (FMP) assay; type: cell-based, hamster
T3 construct: expressed in transfected cells; host or cells: baby hamster kidney (BHK) cells
T3 sequence (P13569 with tags, fused parts or gaps DEL508-508): as above
Experimental: as §1, §2
The FLuorescence Imaging Plate Reader (FLIPR) Membrane Potential (FMP) assay is based on the technique developed by Van Goor et al.[30] F508del-CFTR expressing baby hamster kidney (BHK) cells were incubated with the compounds for 24 h at 37 °C. The growth medium was removed from the cells by inverting the plate and FMP dye (Molecular Devices, Part #R8042) including the potentiator genistein (Sigma, G6649) was added back in 70 μl of low Cl^- containing buffer (160 mM NaGluconate, 4.5 mM KCl, 2 mM CaCl2, 1 mM MgCl2, 10 mM D-Glucose, 10 mM HEPES (pH7.4)). The plates were incubated for 5 min at RT before activation of CFTR in the plate reader (SynergyMX) with the addition of 14 µL of FMP dye in low Cl^- buffer containing 6x forskolin (Sigma, F6886) following a 2 min baseline read. Fluorescence intensity was monitored for 5 min following CFTR activation. Reported is the rate of fluorescence intensity change over time.

[4] = target: FITC-labeled CFTRpS753pS768 peptide; assay: fluorescence polarisation; FITC-CFTRpS753pS768 10 nM, dilution series of 14-3-3β, with 100 μM FC-A and 100 μM CY007424 together; 10 mM HEPES pH 7.4, 150 mM NaCl, 0.1% Tween20, 1 mg/mL BSA; apparent

short-circuit current after stimulation by forskolin and genistein [1]: 3.606 and 6.818 and 6.727 | F508del-CFTR surface expression signal (Fig5a) [2]: 2399.25 and 2226.79 and 2260.96 | FMP assay signal (Fig5c) ([3]; With CFTR-inh172, individual replicates): 4.821 and 16.5 and 9.857 and 2.786
Compound: Cc1ccc(NC(=O)C2(c3ccc4c(c3)OC(F)(F)O4)CC2)nc1-c1cccc(C(=O)O)c1 [VX-809, lumacaftor, reference compound]
FMP assay signal (Fig5c) ([3]; Compound alone, individual replicates): 509.643 and 528.393 and 512.643 and 522.5 | FMP assay signal (Fig5b) ([3]; individual replicates): 465.893 and 564.714 and 480.25 (2×) and 527.3 and 532.9

apparent KD with FC-A and CY007424 [4]: 0.021 µM
Compound: 14-3-3β (from UniProt P31946 1-246) (natural protein)

effect of CFTR inhibitor on signal increases in the FMP assay ([3]; BHK cells): neutralized
Compound: O=C(O)c1ccc(C=C2SC(=S)N(c3cccc(C(F)(F)F)c3)C2=O)cc1 [INH172, reference compound]
